The record followed here is patent publication US9346776B2, “Fused heterocyclic compound” (Takeda Pharmaceutical Company Limited, priority 2014, dated 2016).

For orientation: inhibition means the change of the read-out against control, counted positive when it falls.

The structures appear in SMILES notation.

The target of experiment [1] is T1, Human recombinant enteropeptidase (Homo sapiens, UniProt P98073).
T1 construct: purchased ITSI-Biosciences, LLC #REN-260
Briefly: Human enteropeptidase inhibitory activity. The class given is biochemical. Conditions: 3.3 uM compound; fluorescence 2 hours after start of reaction; read-out: Inhibition rate at 3.3 uM (%). The protocol: Test Example 1 Human enteropeptidase inhibitory activity Human recombinant enteropeptidase (#REN-260, ITSI-Biosciences, LLC) was diluted with an assay buffer (50 mM Tricine (pH 8.0), 0.01 (w/v) % Tween 20, 10 mM CaCl2) to prepare a 24 mU/mL enzyme solution. Subsequently, 5FAM-Abu-Gly-Asp-Asp-Asp-Lys-Ile-Val-Gly-Gly-Lys(CPQ2)-Lys-Lys-NH2 (purity: 97.2%, CPC Scientific, Inc.) produced according to a synthesis method known per se was diluted with an assay buffer to prepare a 2.1 uM (“u” represents “micro”) substrate solution. Each test compound was dissolved in DMSO to prepare a 1 mM solution, which was then diluted 100-fold with an assay buffer to prepare a compound solution. The compound solution (5 uL/well) and the substrate solution (5 uL/well) were added to a 384-well black plate (#784076, Greiner Bio-One) and mixed. Then, the enzyme solution (5 uL/well) was added to the plate and mixed to start reaction. The fluorescence intensity was measured at an excitation wavelength of 485 nm and a fluorescence wavelength of 535 nm using a fluorescence plate reader EnVision (PerkinElmer Inc.). Also, the same reaction as above was performed except that the test compound was not added (test compound non-supplemented group). In addition, the same reaction as above was performed except that neither the test compound nor the enzyme was added (control group). The inhibition rate was calculated from the fluorescence intensity 2 hours after the start of the reaction according to the following equation: Inhibition rate (%)=(1−(Fluorescence intensity of the test compound supplemented group−Fluorescence intensity of the control group)/(Fluorescence intensity of the test compound non-supplemented group−Fluorescence intensity of the control group))×100

Experiment [2] relates to high fat diet-fed (HFD-fed) mouse. Briefly: Test on elevation of protein concentration in feces using HFD-fed mouse. It is filed as in vivo. As to conditions: 10 mg/kg oral, feces recovered at day 1, mean ± SD, 5 mice. How it is done:
Test Example 2 Test on elevation of protein concentration in feces using HFD-fed mouse A 0.5% methylcellulose suspension (test compound administered group, 5 mice per group) containing each test compound (10 mg/kg) or a 0.5% methylcellulose suspension (test compound non-administered group (vehicle), 5 mice per group) was orally administered to each high fat diet-fed (HFD-fed) mouse (D12079B diet, male, 18 weeks old), and the whole feces were recovered at day 1 of administration. The dry feces were dissolved in a 0.5 N aqueous sodium hydroxide solution. After centrifugation at 12,000 rpm, a protein concentration was quantified (Lowry method) using the supernatant to calculate a protein concentration (mg/g feces) in 1 g of feces. The mean and standard deviation of each group are shown below.

The test system of experiment [3] is diet-induced obesity (DIO) mouse. Briefly: Test on antiobesity action using DIO mouse. The class given is in vivo. Conditions: mean ± SD; for Body weight(g) At start of administration: baseline. How it is done: Test Example 3 Test on antiobesity action using DIO mouse A 0.5% methylcellulose suspension (test compound administered group, 5 or 6 mice per group) containing each test compound (20 or 60 mg/kg) or a 0.5% methylcellulose suspension (test compound non-administered group (vehicle), 6 mice per group) was orally administered to each diet-induced obesity (DIO) mouse (D12079B diet, male, 46 weeks old) once a day for 4 weeks. The means of body weights and standard deviations at the start of administration and after 4-week continuous administration are shown below.

The test system of experiment [4] is Male ob/ob mice. Put plainly: Hypoglycemic action on diabetes mellitus animal model (2-week continuous administration). It is filed as in vivo, mouse. Conditions: feed containing 0.03% compound for 2 weeks, mean ± SD. The text has this: Test Example 4 Hypoglycemic action on diabetes mellitus animal model (2-week continuous administration) Male ob/ob mice (6 weeks old) were used to prepare two groups each involving 5 individuals. One of the groups was fed as a control with feed free from a compound for 2 weeks, while the other group to receive compound treatment was fed with feed containing a compound at a concentration of 0.03% for 2 weeks. After 2 weeks, blood was collected from the tail vein of each mouse, and a diabetes mellitus-ameliorating action brought about by the compound treatment was evaluated. Blood glucose levels were measured using Hitachi automatic analyzer model 7180 (Hitachi, Ltd.), and glycated hemoglobin levels were measured using Tosoh automatic glycohemoglobin analyzer HLC-723G8 (Tosoh Corp.). The blood glucose and glycated hemoglobin levels of each group after the 2-week administration are indicated by mean±standard deviation in Table 6.

Setting [5] is: 20 mg/kg oral once a day for 4 weeks.
Where [6] appears, read: 60 mg/kg oral once a day for 4 weeks.

T1 sequence (P98073 whole entry): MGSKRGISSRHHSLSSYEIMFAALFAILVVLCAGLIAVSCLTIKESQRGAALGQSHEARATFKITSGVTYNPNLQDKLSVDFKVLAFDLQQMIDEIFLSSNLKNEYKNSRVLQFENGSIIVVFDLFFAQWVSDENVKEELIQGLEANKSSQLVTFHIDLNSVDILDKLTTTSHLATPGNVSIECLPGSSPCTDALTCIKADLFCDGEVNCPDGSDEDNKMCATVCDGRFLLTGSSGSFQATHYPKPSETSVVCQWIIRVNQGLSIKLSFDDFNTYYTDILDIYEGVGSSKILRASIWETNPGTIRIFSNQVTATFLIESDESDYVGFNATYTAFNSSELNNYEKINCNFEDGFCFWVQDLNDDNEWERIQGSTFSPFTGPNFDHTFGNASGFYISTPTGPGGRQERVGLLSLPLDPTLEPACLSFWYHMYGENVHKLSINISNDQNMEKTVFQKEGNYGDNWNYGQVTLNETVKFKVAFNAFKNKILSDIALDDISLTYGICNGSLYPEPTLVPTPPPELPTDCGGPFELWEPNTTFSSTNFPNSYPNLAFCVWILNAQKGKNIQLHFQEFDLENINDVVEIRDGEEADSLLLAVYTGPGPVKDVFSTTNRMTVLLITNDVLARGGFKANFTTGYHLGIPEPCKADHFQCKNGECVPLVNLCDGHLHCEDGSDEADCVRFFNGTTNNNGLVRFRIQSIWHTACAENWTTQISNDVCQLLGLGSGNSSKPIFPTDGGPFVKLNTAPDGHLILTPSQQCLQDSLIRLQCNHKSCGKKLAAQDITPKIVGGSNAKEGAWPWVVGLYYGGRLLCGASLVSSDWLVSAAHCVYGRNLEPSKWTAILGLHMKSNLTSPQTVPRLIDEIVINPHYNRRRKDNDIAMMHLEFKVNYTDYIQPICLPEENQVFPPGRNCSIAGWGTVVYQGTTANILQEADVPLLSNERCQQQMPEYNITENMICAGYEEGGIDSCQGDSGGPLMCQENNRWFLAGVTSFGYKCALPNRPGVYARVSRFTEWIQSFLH

With `N=C(N)Nc1ccc(C(=O)Oc2ccc3c(c2)OC[C@@H]3CC(=O)N[C@@H](CC(=O)O)C(=O)O)cc1` [Example 2, N-(((3R)-6-((4-Carbamimidamidobenzoyl)oxy)-2,3-dihydro-1-benzofuran-3-yl)acetyl)-L-aspartic acid], the inhibition at 3.3 µM in experiment [1] is 101%. The “Protein concentration in feces (mg/g feces)” value in experiment [2] was 149.8 ± 24.4 mg/g feces. The “Body weight(g) After 4-week continous administration” value in experiment [3] (setting [5]) worked out at 46.0 ± 2.8 g; in experiment [3] (setting [6]), 44.4 ± 4.5 g. Further, the “Body weight(g) At start of administration” value worked out at 49.6 ± 2.6 g in experiment [3] (20 mg/kg oral once a day) and 49.8 ± 2.8 g in experiment [3] (60 mg/kg oral once a day). Turning to `N=C(N)Nc1ccc(C(=O)Oc2ccc3c(c2)OC[C@@H]3CC(=O)N(CCC(=O)O)CCC(=O)O)cc1` [Example 9, 3,3′-((((3R)-6-((4-carbamimidamidobenzoyl)oxy)-2,3-dihydro-1-benzofuran-3-yl)acetyl)imino)dipropanic acid], the inhibition at 3.3 µM in experiment [1] was found to be 100%. On the same count and under the same terms, then `N=C(N)Nc1ccc(C(=O)Oc2ccc3c(c2)OC[C@H]3CC(=O)N[C@H](CC(=O)O)C(=O)O)cc1` [Example 4, N-(((3S)-6-((4-carbamimidamidobenzoyl)oxy)-2,3-dihydro-1-benzofuran-3-yl)acetyl)-D-aspartic acid], with 100%. On the same count and under the same terms, the value for `N=C(N)Nc1ccc(C(=O)Oc2ccc3c(c2)OC[C@@H]3CC(=O)N[C@@H](CCC(=O)O)C(=O)O)cc1` [Example 6, N-(((3R)-6-((4-carbamimidamidobenzoyl)oxy)-2,3-dihydro-1-benzofuran-3-yl)acetyl)-L-glutamic acid] was 101%; that for `N=C(N)Nc1ccc(C(=O)Oc2ccc3c(c2)OC[C@@H]3CC(=O)N[C@H](CC(=O)O)C(=O)O)cc1` [Example 5, N-(((3R)-6-((4-carbamimidamidobenzoyl)oxy)-2,3-dihydro-1-benzofuran-3-yl)acetyl)-D-aspartic acid] was 101%. As for `N=C(N)Nc1ccc(C(=O)Oc2ccc3c(c2)OC[C@H]3CC(=O)N[C@@H](CC(=O)O)C(=O)O)cc1` [Example 1, N-(((3S)-6-((4-Carbamimidamidobenzoyl)oxy)-2,3-dihydro-1-benzofuran-3-yl)acetyl)-L-aspartic acid], the inhibition at 3.3 µM in experiment [1] came to 101%. Besides, the “Protein concentration in feces (mg/g feces)” value in experiment [2] worked out at 177.6 ± 35.2 mg/g feces. The figures for the “Body weight(g) After 4-week continous administration” value in experiment [3] (setting [5]) and in experiment [3] (setting [6]) were 43.8 ± 1.7 g and 41.7 ± 2.8 g, respectively. Besides, the results for the “Body weight(g) At start of administration” value in experiment [3] (20 mg/kg oral once a day) and in experiment [3] (60 mg/kg oral once a day) were 48.3 ± 2.0 g and 49.5 ± 2.2 g, respectively.

Turning to `Cc1c(OC(=O)c2ccc(NC(=N)N)cc2)ccc2c1OCC2CC(=O)N[C@@H](CC(=O)O)C(=O)O` (stereo partly drawn) [Example 11, N-((6-((4-carbamimidamidobenzoyl)oxy)-7-methyl-2,3-dihydro-1-benzofuran-3-yl)acetyl)-L-aspartic acid], the inhibition at 3.3 µM in experiment [1] worked out at 98%. Turning to `N=C(N)Nc1ccc(C(=O)Oc2cc(F)c3c(c2)OCC3CC(=O)N[C@@H](CC(=O)O)C(=O)O)cc1` (stereo partly drawn) [Example 10, N-((6-((4-Carbamimidamidobenzoyl)oxy)-4-fluoro-2,3-dihydro-1-benzofuran-3-yl)acetyl)-L-aspartic acid], in experiment [1], the inhibition at 3.3 µM worked out at 100%. Consider `N=C(N)Nc1ccc(C(=O)Oc2ccc3c(c2)OC[C@H]3CC(=O)N[C@@H](CC(=O)O)C(=O)O)cc1` [Example 12, N-(((3S)-6-((4-Carbamimidamidobenzoyl)oxy)-2,3-dihydro-1-benzofuran-3-yl)acetyl)-L-aspartic acid hydrate], for which, in experiment [4], the “Blood glucose level” value is 144.2 ± 19.5 mg/dL and the “Glycated hemoglobin level (%)” value amounted to 3.5 ± 0.1%. Regarding `N=C(N)Nc1ccc(C(=O)Oc2ccc3c(c2)OC[C@H]3CC(=O)N[C@@H](CCC(=O)O)C(=O)O)cc1` [Example 7], the inhibition at 3.3 µM in experiment [1] was 101%. Same read-out and setting: then `Cc1cc(OC(=O)c2ccc(NC(=N)N)cc2)cc2c1C(CC(=O)N[C@@H](CC(=O)O)C(=O)O)CO2` (stereo partly drawn) [Example 3, N-((6-((4-Carbamimidamidobenzoyl)oxy)-4-methyl-2,3-dihydro-1-benzofuran-3-yl)acetyl)-L-aspartic acid], with 100%; and `N=C(N)Nc1ccc(C(=O)Oc2ccc3c(c2)OC[C@@H]3CC(=O)N(CC(=O)O)CC(=O)O)cc1` [Example 8, 2,2′-((((3R)-6-((4-carbamimidamidobenzoyl)oxy)-2,3-dihydro-1-benzofuran-3-yl)acetyl)imino)diacetic acid], with 100%.
